We go through seven compounds from US20090023697A1, “ANALGESIA METHOD” (Vernalis (R&D) Limited, priority 2003, published 2009).

For data set [1] the following is noted: alphadolone alone; cited from earlier work.
The conditions of data set [2]: given ip or intragastrically; cited from earlier work.
The conditions of data set [3]: dose of alphadolone used for tolerance reversal (10 mg/kg); cited from earlier work.
In data set [4] the test system is male Wistar rats. Put plainly: Rotarod running test to assess sedation after neurosteroid sustained release emulsions. The note with it: sc sustained release emulsion; for sedation (rotarod run time) at 1 hour after injection: normal run time 120 s. A general note: In the rotarod test animals must keep their balance on a rotating rod.
Data set [5] has as its system rats. Kind of data set: Tail flick latency (TFL) response to ip morphine: effect of alphadolone on established morphine tolerance. Background: In hot-plate and tail-flick tests a longer latency is read as antinociception.
Text: An observer unaware of the nature of this treatment, saline or alphadolone, made the TFL measurements.
The TFL responses on day 1 and day 3 were combined for drug treatment and expressed as means SEM. These values were compared to see if tolerance occurred and whether co administration of alphadolone caused reversal of the tolerance effect.
Data set [6] deals with rats. Kind of data set: Electrical current threshold (ECT) test of nociceptive threshold in the tail after alphadolone sustained release emulsion. The settings on record: 250 mg/kg alphadolone acetate sc in slow release emulsion.
Data set [7] relates to male Wistar rats. Kind of data set: Tail flick latency (TFL) response to ip morphine: effect of sustained release neurosteroid on development of morphine tolerance.
The subject of another data set is mice. The settings on record: cited from earlier work.
The conditions of data set [8]: in vivo; cited from earlier work.
The mark [9] stands for this setting: alphadolone 250 mg/kg, alphaxalone 80 mg/kg.

For the compound `CC(=O)OCC(=O)[C@H]1CC[C@H]2[C@@H]3CC[C@H]4C[C@H](O)CC[C@]4(C)[C@H]3C(=O)C[C@]12C` [alphadolone, 21-acetoxy-3alpha-hydroxy-5alpha-pregnane-11, 20-dione], in data set [1], the “antinociceptive effects in the TFL test” value was “no antinociceptive effects”. In [2], the antinociception entry was “causes antinociceptive effects” and the sedation entry is “without sedation”. In [3], the “potentiation of morphine TFL effects” value was “potentiate morphine TFL effects”. In addition, the “sedation (rotarod run time) later than 1 hour after injection” value in the data set with male Wistar rats [4] (alphadolone 250 mg/kg) was “no sedation”. In the data set with male Wistar rats [4] (setting [9]), the “sedation (rotarod run time) at 1 hour after injection” value is reported as “small but significant amount of sedation”. Further, in the data set with rats [5] (6.4 mg/kg morphine ip plus alphadolone 10 mg/kg after two days morphine emulsion, mean SEM, n=9), the “TFL response, day 3 (post tolerance), morphine co administered with alphadolone” value is given as 78.6 9.8 % MPE. In the data set on rats [5] (morphine 6.4 mg/kg ip co administered with alphadolone 10 mg/kg, p>0.05 one way ANOVA), the “day 3 response compared with day 1 response before tolerance” value is reported as “equal to that produced on day 1”. Besides, in the data set on rats [6], the “loss of consciousness / looking sedated after the injection” value is reported as “did not cause any rat to lose consciousness or in any way to look sedated”. Moreover, the “time by which nociceptive threshold (ECT) was significantly increased” value in the data set on rats [6] (n=10) was “one”. Further, the “time nociceptive threshold (ECT) remained elevated” value with rats [6] (n=10, readings up to 44 hours) is 24 h. Moreover, the “sedation observed during the course of the tolerance experiment” value with male Wistar rats [7] (sc emulsions with morphine emulsion, alphadolone 250 mg/kg/day, alphaxalone 80 mg/kg/day) is on record as “no overt signs of sedation”. The “post treatment TFL values (6.4 mg/kg ip morphine, day 3) compared with vehicle treated controls” value in the data set on male Wistar rats [7] (two days sc morphine emulsion plus sc emulsion of alphadolone 250 mg/kg/day or alphaxalone 80 mg/kg/day, Students t test) was “statistically significant difference”.

For `CC(=O)[C@H]1CC[C@H]2[C@@H]3CC[C@H]4C[C@H](O)CC[C@]4(C)[C@H]3CC[C@]12C` [allopregnanolone], the “prevention of morphine tolerance” value in the data set on mice is “positive results”.

`CC(=O)[C@H]1CC[C@H]2[C@@H]3CC[C@H]4C[C@H](O)CC[C@]4(C)[C@H]3C(=O)C[C@]12C` [alphaxalone]: in data set [2], the antinociception result is “no antinociception” and the sedation entry is on record as “causes sedation”. Further, the “potency as an anaesthetic compared with alphadolone” value in [8] was “three”. Moreover, the “sedation (rotarod run time) at 1 hour after injection” value in the data set with male Wistar rats [4] (setting [9]) was “significantly greater than that caused by alphadolone”. Besides, in the data set on male Wistar rats [4] (alphaxalone 80 mg/kg), the “duration of significant sedative effects (rotarod)” value is given as “four”.

Take `CN1CC[C@]23c4c5ccc(O)c4O[C@H]2[C@@H](O)C=C[C@H]3[C@H]1C5` [morphine]: the “tail flick latency response, day 1 (pre tolerance)” value with rats [5] (immediate release morphine 6.4 mg/kg ip, both groups, n=9) is listed as “approximately 80 % MPE”.

Consider `CC(=O)C1CCC2C3CC=C4CC(OS(=O)(=O)O)CCC4(C)C3CCC12C` (centres unmarked) [pregnenolone sulphate], for which the “prevention of morphine tolerance” value in the data set with mice is “positive results”.

Consider dehydroepiandrosterone sulphate, for which the “prevention of morphine tolerance” value with mice was “positive results”.

As to `CC(=O)[C@H]1CC[C@H]2[C@@H]3CCC4=CC(=O)CC[C@]4(C)[C@H]3CC[C@]12C` [progesterone], in the data set on mice, the “prevention of morphine tolerance” value was “positive results”.
